Test results from US20030216569A1, “Method of making HIV protease inhibitors” (priority 1993, published 2003).
Where “and” joins values, the source holds several entries; their conditions need not be identical. Equal entries are not always repeated. Where two headings read alike, the source gives them in different places. Marks after values point to notes of the source that are not given here.

Target: HIV-1 protease (Human immunodeficiency virus type 1 group M subtype B, UniProt P04585)
Test: Fluorescence HIV-1 Protease Inhibitor Assay (Pandex)
Assay type: biochemical
Set-up: made in house; host or cells: E. coli K12 L507/pHP10D (NRRL B-18560)
[1] = normalized to positive control (=1.0), * = a calculated average, read-out: Fluorescence Assay IC50 in ng/mL (converted)
[2] = value as run, 35B value of the same run in footnote or parentheses, read-out: Pandex IC50 ng/ml (converted)
[3] = normalized to positive control (=1.0), * = a calculated average
[4] = value as run, 35B value of the same run in footnote or parentheses

Compound	IC50 [1] [nM]	IC50 [2]	other results
CC(C)(C)NC(=O)C1CC2CCCCC2CN1CC(O)C(Cc1ccccc1)NC(=O)c1ccccc1C(F)(F)F (stereo not drawn) [Example 15, [3S-(3R*,4aR*,8aR*,2′S*,3′R*)]-2-[2′-Hydroxy-3′-phenylmethyl-4′-aza-5′-oxo-5′-(2″-trifluoromethylphenyl)pentyl] decahydroisoquinoline-3-N-t-butylcarboxamide]	657	315 nM	–
[3S-(3R*,4aR*,8aR*,2′S*,3′S*)]-2-[2′-Hydroxy-3′-phenylmethyl-4′-aza-5′-oxo-5′-[2″-methyl-3″-N-(methylsulfonyl)amino-phenyl)]pentyl] decahydroisoguinoline-3-N-t-butylcarboxamide [Example 36]	–	–	Fluorescence Assay IC50 [3]: 0.062 µg/mL; Pandex IC50 ng/ml [4]: 93^e ng/ml
Cc1c(O)cccc1C(=O)N[C@@H](CSc1ccc2ccccc2c1)[C@H](O)CN1CCCC[C@H]1C(=O)NC(C)(C)C [Example 25, [2S-(2R*,2′S*,3′S*)]-1-[2′-Hydroxy-3′-(naphth-2-ylthiomethyl-4′-aza-5′-oxo-5′-(2″-methyl-3″-hydroxyphenyl)pentyl]piperidine-2-N-t-butylcarboxamide]	5.68	3.55 nM and 25.4 nM	–
CC(C)(C)NC(=O)C1CC2CCCCC2CN1CC(O)C(Cc1ccccc1)NC(=O)c1c(Cl)ccc(O)c1Cl (stereo not drawn) [Example 17, [3S-(3R*,4aR*,8aR*,2′S*,3′R*)]-2-[2′-Hydroxy-3′-phenylmethyl-4′-aza-5′-oxo-5′-(2″,6″-dichloro-3″-hydroxyphenyl)pentyl] decahydroisoquinoline-3-N-t-butylcarboxamide]	–	–	Fluorescence Assay IC50 in ng/mL [3]: 269* ng/mL; Pandex IC50 ng/ml [4]: 346^b ng/ml
CCCc1c(O)cccc1C(=O)NC(Cc1ccccc1)C(O)CN1CC2CCCCC2CC1C(=O)NC(C)(C)C (stereo not drawn) [Example 22, [3S-(3R*,4aR*,8aR*,2′S*,3′R*)]-2-[2′-Hydroxy-3′-phenylmethyl-4′-aza-5′-oxo-5′-(2″-propyl-3″-hydroxyphenyl)pentyl] decahydroisoquinoline-3-N-t-butylcarboxamide]	1.29	124 nM	–
CCc1c(O)cccc1C(=O)NC(Cc1ccccc1)C(O)CN1CC2CCCCC2CC1C(=O)NC(C)(C)C (stereo not drawn) [Example 3, [3S-(3R*,4aR*,8aR*,2′S*,3′R*)]-2-[2′-Hydroxy-3′-phenylmethyl-4′-aza-5′-oxo-5′-(2″-ethyl-3″-hydroxyphenyl)pentyl] decahydroisoguinoline-3-N-t-butylcarboxamide]	44	21.1 nM	–
Cc1c(O)cccc1C(=O)NC(Cc1ccccc1)C(O)CN1CC2CCCCC2CC1C(=O)NC(C)(C)C (stereo not drawn) [Example 23, [3S-(3R*,4aR*,8aR*,2′S*,3′R*)]-2-[2′-Hydroxy-3′-phenylmethyl-4′-aza-5′-oxo-5′-(2″-methyl-3″-hydroxyphenyl)pentyl] decahydroisoquinoline-3-N-t-butylcarboxamide]	–	–	Fluorescence Assay IC50 [3]: 0.00025 µg/mL; Pandex IC50 ng/ml [4]: 0.2^c ng/ml and 0.16^d ng/ml and 0.2^b ng/ml
CC(C)(C)NC(=O)C1CC2CCCCC2CN1CC(O)C(Cc1ccccc1)NC(=O)c1cccnc1Cl (stereo not drawn) [Example 2, [3S-(3R*,4aR*,8aR*,2′S*,3′R*)]-2-[2′-Hydroxy-3′-phenylmethyl-4′-aza-5′-oxo-5′-(2″-chloro-pyrid-3″-yl)pentyl] decahydroisoquinoline-3-N-t-butylcarboxamide]	2000	963 nM	–
CCCCc1c(O)cccc1C(=O)NC(Cc1ccccc1)C(O)CN1CC2CCCCC2CC1C(=O)NC(C)(C)C (stereo not drawn) [Example 21, [3S-(3R*,4aR*,8aR*,2′S*,3′R*)]-2-[2′-Hydroxy-3′-phenylmethyl-4′-aza-5′-oxo-5′-(2″-butyl-3′″-hydroxyphenyl)pentyl] decahydroisoquinoline-3-N-t-butylcarboxamide]	16.3	13.7 nM	–
CC(C)(C)NC(=O)C1CC2CCCCC2CN1CC(O)C(Cc1ccccc1)NC(=O)c1cccc(O)c1Cl (stereo not drawn) [Example 11, [3S-(3R*,4aR*,8aR*,2′S*,3′R*)]-2-[2′-Hydroxy-3′-phenylmethyl-4′-aza-5′-oxo-5′-(2″-chloro-3″-hydroxyphenyl)pentyl] decahydroisoquinoline-3-N-t-butylcarboxamide]	9.17	24.6 nM	–
CC(C)(C)NC(=O)C1CC2CCCCC2CN1CC(O)C(Cc1ccccc1)NC(=O)c1ccc[n+]([O-])c1 (stereo not drawn) [Example 5, [3S-(3R*,4aR*,8aR*,2′S*,3′R*)]-2-[2′-Hydroxy-3′-phenylmethyl-4′-aza-5′-oxo-5′-(pyrid-3″yl-N-oxidyl)pentyl] decahydroisoquinoline-3-N-t-butylcarboxamide]	5030	1910 nM	–
Cc1c(O)cccc1C(=O)N[C@@H](Cc1ccccc1)[C@H](O)CN1CCN(Cc2cccnc2)C[C@H]1C(=O)NC(C)(C)C [Example 26, [2S-(2R*,2′S*,3′R*)]-1-[2′-Hydroxy-3′-phenylmethyl-4′-aza-5′-oxo-5′-(2″-methyl-3″-hydroxyphenyl)pentyl]-4-(pyrid-3′″-ylmethyl) piperazine-2-N-t-butylcarboxamide]	5.4	4.01 nM	–
Cc1c(O)cccc1C(=O)NC(CSc1ccc2ccccc2c1)C(O)CN1CC2CCCCC2CC1C(=O)NC(C)(C)C (stereo not drawn) [Example 24, [3S-(3R*,4aR*,8aR*,2′S*,3′R*)]-2-[2′-Hydroxy-3′-(naphth-2-ylthiomethyl)-4′-aza-5′-oxo-5′-(2″-methyl-3″-hydroxyphenyl)pentyl] decahydroisoquinoline-3-N-t-butylcarboxamide]	9.39	4.53 nM	Pandex % at 20 ng/ml (at 20 ng/ml): 84%/20^d
Cc1c(N)cccc1C(=O)NC(Cc1ccccc1)C(O)CN1CC2CCCCC2CC1C(=O)NC(C)(C)C (stereo not drawn) [Example 18, [3S-(3R*,4aR*,8aR*,2′S*,3′R*)]-2-[2′-Hydroxy-3′-phenylmethyl-4′-aza-5′-oxo-5′-(2″-methyl-3″-aminophenyl)pentyl] decahydroisoquinoline-3-N-t-butylcarboxamide]	126	17.8 nM	–
CC(C)(C)NC(=O)C1CC2CCCCC2CN1CC(O)C(Cc1ccccc1)NC(=O)c1cccc(O)c1F (stereo not drawn) [Example 1, [3S-(3R*,4aR*,8aR*,2′S*,3′R*)]-2-[2′-Hydroxy-3′-phenylmethyl-4′-aza-5′-oxo-5′-(2″-fluoro-3″-hydroxyphenyl)pentyl]decahydroisoquinoline-3-N-t-butylcarboxamide]	1780	856 nM	–
CC(C)c1c(O)cccc1C(=O)NC(Cc1ccccc1)C(O)CN1CC2CCCCC2CC1C(=O)NC(C)(C)C (stereo not drawn) [Example 20, [3S-(3R*,4aR*,8aR*,2′S*,3′R*)]-2-[2′-Hydroxy-3′-phenylmethyl-4′-aza-5′-oxo-5′-(2″-iospropyl-3″-hydroxyphenyl)pentyl] decahydroisoquinoline-3-N-t-butylcarboxamide]	11.5	151 nM	–
Cc1c(O)cccc1C(=O)NC(Cc1ccccc1)C(O)CN1CC2CCCCC2CC1C(=O)NC(C)(C)C (stereo not drawn) [Example 12, [3S-(3R*,4aR*,8aR*,2′S*,3′R*)]-2-[2′-Hydroxy-3′-phenylmethyl-4′-aza-5′-oxo-5′-(2″-methyl-3″-hydroxyphenyl)pentyl] decahydroisoquinoline-3-N-t-butylcarboxamide]	15.5	21.3 nM and 5.23 nM and 17.5 nM	–
